Laboratory results published in US10722514B2 (FLX Bio, Inc., priority 2017, dated 2020).
Counter-ions that a name gives are not always drawn. Like-named read-outs stand apart in the source and are kept apart here.

Target: T1, recombinant full-length USP7 (Homo sapiens, UniProt Q93009)
T1 construct: A 25 μl reaction volume containing recombinant full-length USP7 (62 pM)
Test: USP7-mediated ubiquitin-rhodamine cleavage assay
Type: biochemical
Settings: recombinant full-length USP7 62 pM, ubiquitin-rhodamine 100 nM, 1 hour reaction at room temperature
How it was run: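 IC50 values came from fluorescence measured after a 1 h room-temperature reaction of 62 pM enzyme with 100 nM ubiquitin-rhodamine, following 30 min compound preincubation; fits used four parameters.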

[1] = 30-minute pre-incubation, read-out: Potency (USP7 IC50)
[2] = 30-minute incubation with compound, read-out: Potency: USP7 IC50

T1 sequence (Q93009 whole entry): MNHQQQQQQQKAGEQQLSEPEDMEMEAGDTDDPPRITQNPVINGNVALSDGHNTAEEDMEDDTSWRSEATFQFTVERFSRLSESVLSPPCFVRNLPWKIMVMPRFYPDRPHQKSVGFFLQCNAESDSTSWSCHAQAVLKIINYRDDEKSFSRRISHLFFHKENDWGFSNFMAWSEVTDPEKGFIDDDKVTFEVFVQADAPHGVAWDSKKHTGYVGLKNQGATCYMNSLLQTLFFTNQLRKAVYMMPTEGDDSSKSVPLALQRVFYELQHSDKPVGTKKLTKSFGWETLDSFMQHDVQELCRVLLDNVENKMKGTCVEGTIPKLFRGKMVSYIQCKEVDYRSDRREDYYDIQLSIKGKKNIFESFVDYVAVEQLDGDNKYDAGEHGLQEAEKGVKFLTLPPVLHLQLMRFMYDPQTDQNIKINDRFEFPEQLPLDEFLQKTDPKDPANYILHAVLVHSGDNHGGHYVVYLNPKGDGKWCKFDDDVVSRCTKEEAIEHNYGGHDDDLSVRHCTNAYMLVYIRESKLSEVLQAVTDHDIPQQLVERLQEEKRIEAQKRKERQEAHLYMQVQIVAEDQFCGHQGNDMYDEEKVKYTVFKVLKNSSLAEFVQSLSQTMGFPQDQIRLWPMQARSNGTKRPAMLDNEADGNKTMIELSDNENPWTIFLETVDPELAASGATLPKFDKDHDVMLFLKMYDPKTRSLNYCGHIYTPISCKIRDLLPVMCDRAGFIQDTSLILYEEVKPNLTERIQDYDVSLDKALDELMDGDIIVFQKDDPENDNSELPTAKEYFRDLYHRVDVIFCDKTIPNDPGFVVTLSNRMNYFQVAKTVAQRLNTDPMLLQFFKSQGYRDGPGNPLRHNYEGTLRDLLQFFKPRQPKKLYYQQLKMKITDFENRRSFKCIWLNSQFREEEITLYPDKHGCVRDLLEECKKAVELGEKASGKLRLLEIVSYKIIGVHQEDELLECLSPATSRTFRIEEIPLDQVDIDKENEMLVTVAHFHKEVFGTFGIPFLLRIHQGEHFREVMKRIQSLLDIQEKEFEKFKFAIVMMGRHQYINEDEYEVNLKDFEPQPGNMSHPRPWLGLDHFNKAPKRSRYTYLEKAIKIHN

Row | IC50 [1] [nM] | IC50 [2] [nM] | Compound | also measured
1 | < 1000 |  | Cc1cc(Cl)cc(-c2ccnc3cc(CN4C(=O)CCC4=O)sc23)c1O[C@H]1CCCN(C2COC2)C1 [Example 449, 1-[[7-[5-chloro-3-methyl-2-[[(3S)-1-(oxetan-3-yl)-3-piperidyl]oxy]phenyl]thieno[3,2-b]pyridin-2-yl]methyl]pyrrolidine-2,5-dione] | 
2 |  | < 1000 | Cc1cc(Cl)cc(-c2ccnc3cc(CN4C(=O)OC(C)(C)C4=O)sc23)c1O[C@H]1CCCNC1 [Example 311, 3-[[7-[5-chloro-3-methyl-2-[[(3S)-3-piperidyl]oxy]phenyl]thieno[3,2-b]pyridin-2-yl]methyl]-5,5-dimethyl-oxazolidine-2,4-dione; 2,2,2-trifluoroacetic acid] | 
3 | < 1000 |  | Cc1cc(Cl)cc(-c2ccnc3cc(Cn4c(=O)ccn(CC(F)(F)F)c4=O)sc23)c1O[C@@H]1CCN(CC(F)F)C[C@@H]1C [Example 642, 3-[[7-[5-chloro-2-[[(3S,4R)-1-(2,2-difluoroethyl)-3-methyl-4-piperidyl]oxy]-3-methyl-phenyl]thieno[3,2-b]pyridin-2-yl]methyl]-1-(2,2,2-trifluoroethyl)pyrimidine-2,4-dione] | 
4 | < 1000 |  | Cc1cc(Cl)cc(-c2ccnc3cc(Cn4c(=O)ccn(C)c4=O)sc23)c1OC1CCCN(C(C)C)C1 (centres unmarked) [Example 505, 3-[[7-[5-chloro-2-[(1-isopropyl-3-piperidyl)oxy]-3-methyl-phenyl]thieno[3,2-b]pyridin-2-yl]methyl]-1-methyl-pyrimidine-2,4-dione] | 
5 |  | < 1000 | Cc1cc(Cl)cc(-c2ccnc3cc(Cn4c(=O)ccn(C(C)C)c4=O)sc23)c1O[C@@H]1CNC[C@@H]1C [Example 329, 3-[[7-[5-chloro-3-methyl-2-[(3S,4S)-4-methylpyrrolidin-3-yl]oxy-phenyl]thieno[3,2-b]pyridin-2-yl]methyl]-1-isopropyl-pyrimidine-2,4-dione] | 
6 |  | < 1000 | Cc1cc(Cl)cc(-c2ccnc3cc(CN4C(=O)CCC4=O)sc23)c1O[C@@H]1CNC[C@@H]1C [Example 105, 1-((7-(5-Chloro-3-methyl-2-(((3S,4S)-4-methylpyrrolidin-3-yl)oxy)phenyl)thieno[3,2-b]pyridin-2-yl)methyl)pyrrolidine-2,5-dione] | 
7 |  | < 1000 | Cc1cc(Cl)cc(-c2ccnc3cc(CN4C(=O)CCC4=O)sc23)c1O[C@@H]1CNCC[C@@H]1C [Example 243, 1-((7-(5-Chloro-3-methyl-2-(((3S,4S)-4-methylpiperidin-3-yl)oxy)phenyl)thieno[3,2-b]pyridin-2-yl)methyl)pyrrolidine-2,5-dione] | 
8 |  | < 1000 | Cc1cc(Cl)cc(-c2ncnc3cc(Cn4c(=O)ccn(C)c4=O)sc23)c1O[C@H]1CCCNC1 [Example 251, (S)-3-((4-(5-Chloro-3-methyl-2-(piperidin-3-yloxy)phenyl)thieno[3,2-d]pyrimidin-6-yl)methyl)-1-methylpyrimidine-2,4(1H,3H)-dione] | 
9 |  | < 1000 | CCN1C[C@H](F)[C@H](Oc2c(C)cc(Cl)cc2-c2ccnc3cc(CN4C(=O)CCC4=O)sc23)C1 [Example 299, 1-[[7-[5-chloro-2-[(3R,4S)-1-ethyl-4-fluoro-pyrrolidin-3-yl]oxy-3-methyl-phenyl]thieno[3,2-b]pyridin-2-yl]methyl]pyrrolidine-2,5-dione] | 
10 |  | < 1000 | Cc1cc(Cl)cc(-c2ccnc3cc(Cn4c(=O)ccn(C)c4=O)sc23)c1OC1CNCC(C)(C)C1 (centres unmarked) [Example 6, 3-((7-(5-Chloro-2-((5,5-dimethylpiperidin-3-yl)oxy)-3-methylphenyl)thieno[3,2-b]pyridin-2-yl)methyl)-1-methylpyrimidine-2,4(1H,3H)-dione] | 
11 | < 1000 |  | Cc1cc(Cl)cc(-c2ccnc3cc(Cn4c(=O)ccn(C)c4=O)sc23)c1O[C@H]1CCCN(CCO)CC1 [Example 494, 3-[[7-[5-chloro-2-[(4S)-1-(2-hydroxyethyl)azepan-4-yl]oxy-3-methyl-phenyl]thieno[3,2-b]pyridin-2-yl]methyl]-1-methyl-pyrimidine-2,4-dione] | 
12 | < 1000 |  | Cc1cc(Cl)cc(-c2ccnc3cc(Cn4c(=O)ccn(CC(F)(F)F)c4=O)sc23)c1O[C@@H]1CN[C@@H](C)C1 [Example 632, 3-[[7-[5-chloro-3-methyl-2-[(3S,5S)-5-methylpyrrolidin-3-yl]oxy-phenyl]thieno[3,2-b]pyridin-2-yl]methyl]-1-(2,2,2-trifluoroethyl)pyrimidine-2,4-dione] | 
13 | < 1000 |  | CCO[C@H]1CNC[C@H]1Oc1c(C)cc(Cl)cc1-c1ccnc2cc(Cn3c(=O)ccn(CC(F)(F)F)c3=O)sc12 [Example 604, 3-[[7-[5-chloro-2-[(3R,4S)-4-ethoxypyrrolidin-3-yl]oxy-3-methyl-phenyl]thieno[3,2-b]pyridin-2-yl]methyl]-1-(2,2,2-trifluoroethyl)pyrimidine-2,4-dione] | 
14 | < 1000 |  | Cc1cc(Cl)cc(-c2ccnc3cc(Cn4c(=O)ccn(C)c4=O)sc23)c1O[C@H]1CCCN(C)CC1 [Example 492, 3-[[7-[5-chloro-3-methyl-2-[(4S)-1-methylazepan-4-yl]oxy-phenyl]thieno[3,2-b]pyridin-2-yl]methyl]-1-methyl-pyrimidine-2,4-dione] | 
15 |  |  | COC1CCC(Oc2c(C)cc(Cl)cc2-c2ccnc3cc(Cn4c(=O)ccn(CC(F)(F)F)c4=O)sc23)CC1 (centres unmarked) [Example 674, 3-[[7-[5-chloro-2-(4-methoxycyclohexoxy)-3-methyl-phenyl]thieno[3,2-b]pyridin-2-yl]methyl]-1-(2,2,2-trifluoroethyl)pyrimidine-2,4-dione] | IC50 (30-minute incubation, read-out: Potency (USP7 IC50)): < 1000 nM
16 |  | 1000 to 10000 | Cc1cc(C#N)cc(-c2ccnc3ccsc23)c1OCC1(C)CNC1 [Example 44, 3-Methyl-4-((3-methylazetidin-3-yl)methoxy)-5-(thieno[3,2-b]pyridin-7-yl)benzonitrile] | 
17 |  | < 1000 | Cc1cc(Cl)cc(-c2ccnc3cc(CN4C(=O)C5C(C4=O)C5(C)C)sc23)c1OC1CNCC(C)(C)C1 [Example 362, 3-[[7-[5-chloro-2-[[(3S)-5,5-dimethyl-3-piperidyl]oxy]-3-methyl-phenyl]thieno[3,2-b]pyridin-2-yl]methyl-6,6-dimethyl-3-azabicyclo[3.1.0]hexane-2,4-dione] | 
18 | < 1000 |  | Cc1cc(Cl)cc(-c2ccnc3cc(CN4C(=O)C[C@H](O)C4=O)sc23)c1OC1CCNCC1 [Example 417, (3S)-1-[[7-[5-chloro-3-methyl-2-(4-piperidyloxy)phenyl]thieno[3,2-b]pyridin-2-yl]methyl]-3-hydroxy-pyrrolidine-2,5-dione dihydrochloride] | 
19 | < 1000 |  | Cc1cc(Cl)cc(-c2ncnc3cc(Cn4c(=O)ccn(CC(F)(F)F)c4=O)sc23)c1O[C@@H]1CCNC[C@H]1C [Example 561, 3-[[4-[5-chloro-3-methyl-2-[[(3R,4R)-3-methyl-4-piperidyl]oxy]phenyl]thieno[3,2-d]pyrimidin-6-yl]methyl]-1-(2,2,2-trifluoroethyl)pyrimidine-2,4-dione] | 
20 |  | < 1000 | Cc1cc(Cl)cc(-c2ccnc3cc(CN4C(=O)C5C(C4=O)C5(C)C)sc23)c1OC1CN(C)CC1(C)F (centres unmarked) [Example 375, 3-[[7-[5-chloro-2-(4-fluoro-1,4-dimethyl-pyrrolidin-3-yl)oxy-3-methyl-phenyl]thieno[3,2-b]pyridin-2-yl]methyl]-6,6-dimethyl-3-azabicyclo[3.1.0]hexane-2,4-dione dihydrochloride] | 
21 | < 1000 |  | Cc1cc(Cl)cc(-c2ccnc3cc(Cn4c(=O)c(F)cn(CC(F)(F)F)c4=O)sc23)c1O[C@@H]1CCNC[C@@H]1C [Example 551, 3-[[7-[5-chloro-3-methyl-2-[[(3S,4R)-3-methyl-4-piperidyl]oxy]phenyl]thieno[3,2-b]pyridin-2-yl]methyl]-5-fluoro-1-(2,2,2-trifluoroethyl)pyrimidine-2,4-dione] | 
22 | < 1000 |  | CCn1ccc(=O)n(Cc2cc3ncnc(-c4cc(Cl)cc(C)c4O[C@H]4CCCNC4)c3s2)c1=O [Example 440, 3-[[4-[5-chloro-3-methyl-2-[[(3S)-3-piperidyl]oxy]phenyl]thieno[3,2-d]pyrimidin-6-yl]methyl]-1-ethyl-pyrimidine-2,4-dione; 2,2,2-trifluoroacetic acid] | 

Row | Compound | IC50 [1] [nM] | IC50 [2] [nM] | also measured
23 | Cc1cc(Cl)cc(-c2ccnc3cc(Cn4c(=O)ccn(C)c4=O)sc23)c1O[C@@H]1CC[C@@](C)(N)C1 [Example 518, 3-[[7-[2-[(1R,3R)-3-amino-3-methyl-cyclopentoxy]-5-chloro-3-methyl-phenyl]thieno[3,2-b]pyridin-2-yl]methyl]-1-methyl-pyrimidine-2,4-dione; 2,2,2-trifluoroacetic acid] | < 1000 |  | 
24 | Cc1cc(Cl)cc(-c2ccnc3cc(CN4C(=O)C5C(C4=O)C5(C)C)sc23)c1OC1CC(N)C1 (centres unmarked) [Example 357, 3-[[7-[2-(3-aminocyclobutyoxy)-5-chloro-3-methyl-phenyl]thieno[3,2-b]pyridin-2-yl]methyl]-6,6-dimethyl-3-azabicyclo[3.1.0]hexane-2,4-dione; 2,2,2-trifluoroacetic acid] |  | < 1000 | 
25 | Cc1cc(Cl)cc(-c2ccnc3cc(Cn4c(=O)ccn(CC(F)(F)F)c4=O)sc23)c1OC1(C)CC(N)C1 (centres unmarked) [Example 640, 3-[[7-[2-(3-amino-1-methyl-cyclobutoxy)-5-chloro-3-methyl-phenyl]thieno[3,2-b]pyridin-2-yl]methyl]-1-(2,2,2-trifluoroethyl)pyrimidine-2,4-dione] | < 1000 |  | 
26 | Cc1cc(Cl)cc(-c2ccnc3cc(Cn4c(=O)ccn(CC(F)(F)F)c4=O)sc23)c1O[C@H]1C[C@H](N2CCOCC2)C1 [Example 278, 3-((7-(5-Chloro-3-methyl-2-((1r,3r)-3-morpholinocyclobutoxy)phenyl)thieno[3,2-b]pyridin-2-yl)methyl)-1-(2,2,2-trifluoroethyl)pyrimidine-2,4(1H,3H)-dione] |  | < 1000 | 
